Results published in US20150037341A1, “Diagnostic and Therapeutic Method” (Plysackaridforskning i Uppsala AB, priority 2011, published 2015).
“Also recorded” adds a separate entry of the source. One block for each compound: values may come before it.

What was measured:
[1] = Nitrocellulose-filter trapping of 3H-labeled heparin bound to TTR peptides; assay type: binding; details: pH 5.0, 3H-labeled heparin 1500 cpm
Description: (§1) (A) TTR amino acid sequence where histidine “(+)” and other basic amino acids “+” are marked. (B) Equal mole of TTR-peptides or full-length protein (with or without acidic dissociation), were incubated with ^3H-labeled heparin (1500 cpm) at pH 5.0. The amount of ^3H-labeled heparin bound to the peptides was analyzed using a nitrocellulose-filter trapping method.
To characterize the TTR-heparin interaction, we incubated TTR and its peptide fragments with ^3H-heparin. The binding was analyzed by a nitrocellulose-filter trapping method (18). […] This heparin-binding peptide contains three basic amino acids, including a histidine that likely contributed to the pH dependency seen in the TTR-heparin/HS interaction. This selective binding propy was further verified by SPR analysis (FIG. 9).

[2] = biological target: T1, dissociated TTR immobilized onto a Biacore sensor chip (Homo sapiens, UniProt P02766); experiment: Surface plasmon resonance (Biacore), heparin/HS over immobilized TTR; assay type: binding
T1 construct: made in house; host or cells: bacteria
Description: (A) Dissociated TTR was immobilized onto a Biacore sensor chip and heparin (10 μM) was allowed to interact with the immobilized TTR in neutral or in mildly acidic conditions. (B) HS II (10 μM) binding to TTR at different pH was monitored and the response for each sample is expressed as response units (RU). […] (C) TTR (50 μM) incubated with heparin or HS II for 7 days at pH 5.0 or pH 7.4 was analyzed by ThT fluorescence. Data represent triplicate experiments (means±SEM).
Dissociated TTR was immobilized onto a Biacore sensor chip. Heparin (A), HS II (B) or HS I (C) were injected in a concentration series (ranging from 0.001-70 μM) over the surface at pH 5.0. The response for each concentration was measured at the steady-state region of the curve. The apparent equilibrium dissociation constant (KD) was calculated by plotting the response at steady-state for each concentration versus heparin/HS concentration. The data were fitted to the equation: Response=(Rmax*C)/(KD+C), where C is the concentration of heparin/HS. Two analyte flow rates (20 and 30 μl/min) were tested to assess possible effects of mass transport limitations in the system. […] The presented values are average value of three independent experiments.
(A) Equal amount of dissociated or native protein was immobilized onto a Biacore sensor chip and HS II was allowed to interact with the immobilized TTR at pH 5.0. (B) The values of the HS II-TTR interaction signal were obtained by repeated experiments using three chips with different ligand densities (250-3000 RU). The signals were normalized to a ligand density of 1000 RU and average value is shown. Statistical analysis was done by t test.
Interaction of TTR with heparin/HS was evaluated using a Biosensor system (Biacore2000). TTR was dissociated in acidic buffer (pH 2.7) and then diluted into a 50 mM NaAc (pH 5.0) coupling buffer and immobilized onto a CM5 sensor chip to a level of 3000 RU using an amine-coupling kit (GE Healthcare, Uppsala, Sweden). For binding and kinetic analysis, heparin or HS was injected (concentrations indicated in figure legend) over the surface and equilibrated at different pH. The surface was regenerated after each sample with a 30 s wash step of 0.5 M NaCl. All obtained sensorgrams were double-reference subtracted in Biacore evaluation software 2.0, using the reference flow cell and buffer blank sample.

[3] = SPR analysis of TTR peptides binding to immobilized heparin; details: pH 5.0, peptide conc. 25 μg/ml, flow rate 20 μl/min
Description: Heparin was immobilized onto a Biacore sensor chip (CM5) using the surface thiol coupling kit (GE Healthcare). Peptides derived from regions on the TTR sequence (FIG. 5A) containing a histidine residue (24-35, 51-61 and 84-94), were allowed to interact with the heparin surface at pH 5.0 (peptide conc. 25 μg/ml; flow rate 20 μl/min).

[4] = biological target: T2, recombinant wild-type TTR (Homo sapiens, UniProt P02766); experiment: Congo red staining of TTR after incubation with heparin; assay type: biochemical; details: fluorescence and polarized light microscopy
T2 construct: made in house; host or cells: bacteria
Description: (§2) (A, B) The TTR dissolved in phosphate buffer (50 μM, pH 2.7) was incubated alone or with different heparin or HS (12 μM) at 37° C. for 48 h. After incubation the samples were mixed with ThT and fluorescence was measured. Data shown represent triplicate experiments (means±SEM). (C) TTR (500 μM) incubated with heparin (0, 5 or 20 μM) under the same conditions were analyzed with native-PAGE as described in Methods. […] The fibrils migrated in the stacking gel is not shown. (D) Microscopic analysis of the TTR after incubation with heparin. The sample was spotted on a glass and stained with Congo red. Images were taken under fluorescent light (Original magnification: 20×; Scale bar: 5 μm) and polarized light (insert).

[5] = test system: TTR transgenic flies (engineered mutant form of human TTR); experiment: Transgenic Drosophila TTR-model, flies reared on supplemented medium; assay type: in vivo, Drosophila melanogaster; details: medium supplemented 10 mg/ml, heads collected after 9-17 days
Description: (A) Eggs of TTR transgenic flies were cultured on regular medium (control) or medium supplemented with low molecular weight heparin (Klexane®) or heparin. Heads were collected 9-17 days posteclosion and lysed in saline. The extract was analyzed by ThT staining. Values represent the average of duplicate experiments. (B) The presence of heparin in the Drosophila head lysate was analyzed with dot-blot stained Alcian blue. Heparin (25 ng and 50 ng) was used as positive control. Twenty-five microliters of the lysate (same samples as used for ThT analysis) was applied to a nylon membrane (Hybond N+, GE Healthcare) and stained with Alcian blue (0.5% Alcian Blue dissolved in 25% isopropanol and 3% acetic acid).
FIG. 14 illustrates the detection of heparin-TTR co-localization in TTR transgenic flies (A-G) Confocal microscopy analysis of cryo-sections prepared from Drosophila heads. (A) Overview image of a Drosophila head stained with DAPI (blue), showing the brain (Br), optical lobes (OI) and retina (Re). […]
The transgenic Drosophila melanogaster strain (Dhet TTR-A) overexpressing a mutant TTR was generated as described (7). […] The fluorescence was measured as described above. Non-TTR-transgenic flies were used as control to subtract background fluorescence. […]

[6] = biological target: T3, full-length TTR (native, dissociated or aggregated) (Homo sapiens, UniProt P02766); experiment: Nitrocellulose-filter trapping of 3H-labeled heparin bound to full-length TTR; assay type: binding
T3 construct: Equal mole of TTR-peptides or full-length protein (with or without acidic dissociation); made in house; host or cells: bacteria
Description: as §1
Recombinant wild type TTR (500 μM) was dissolved in phosphate buffer (pH 7.4 or 2.7) and incubated at 37° C. for the time period as indicated. (a) The incubated samples were analyzed for their degree of aggregation with native PAGE. (b) The samples were incubated with ^3H-labelled heparin for 30 min at room temperature. The amount of heparin bound to the samples with different aggregation degree was analyzed by a nitrocellulose-filter trapping method.

recombinant human WT TTR = biological target: T4, recombinant human WT TTR (Homo sapiens, UniProt P02766); experiment: Thioflavin T (ThT) fluorescence assay of TTR fibrillization in vitro; assay type: biochemical
T4 construct: made in house; host or cells: bacteria
Description: as §2
(§3) Recombinant wild-type TTR was expressed in bacteria and purified as described previously (Furuya et al. (1991) Biochemistry 30:2415-2421). The purified protein was dissolved in 20 mM phosphate buffer-citric acid (pH 2.7, 3.5, 4.5 or 7.4) to a final concentration of 50 μM for Thioflavin T fluorescence or 500 μM for native-PAGE. Heparin (3H-labeled or unlabeled) and HS were added to the TTR solution to the concentrations as indicated in the respective figure legend. The samples were incubated at 37° C. for the time period as specified.
After incubation, 5 μl of the sample was mixed with ThT in water to a final concentration of 20 μM ThT. The mixture was transferred to a flat bottom-black 96-well plate (Grainer) and the fluorescence was measured at excitation- and emission wavelength of 440 and 480 nm, respectively (Gain=55, FARcyte instruments). Samples aggregated at different pHs were adjusted to neutral pH after completed incubation prior to ThT staining. The experiments were run in duplicate or triplicate.

[7] = biological target: T2, recombinant wild-type TTR; experiment: Native-PAGE of TTR incubated with heparin (Coomassie, Alcian blue, 3H counting of gel sections); assay type: biochemical
Description: TTR dissolved in phosphate buffer (pH 2.7) was co-incubated with heparin (mixture of ^3H-labeled and non-labeled) at 37° C. for 48 h. (A) The TTR-heparin co-incubated sample and heparin alone were separated with native-PAGE and stained with Alcian blue. (B) An identical set of samples was separated on the native-PAGE as above, and each lane was cut into six sections (as illustrated in A). The gel slices were incubated for 2 hr in H2O to extract the heparin. The radioactivity was measured by scintillation counting.
TTR dissolved in phosphate buffer (pH 2.7) was incubated without heparin at 37° C. for 48 h. Heparin (mixture of ^3H-labeled and nonlabeled) was then added and the TTR-heparin sample was incubated for an additional hour at 37° C. The sample was thereafter separated by native-PAGE and the gel was cut into 6 sections as illustrated in FIG. 4A. Radioactivity in each section was measured by scintillation counting. Data represents triplicate experiments (mean±SEM).
as §3
After incubation, 10 μl of the samples was mixed with 2.5 μl of a 5× sample buffer (0.3 M Tris-HCl, pH 6.8, 0.05% bromophenol blue, 50% glycerol) and loaded onto a 10% polyacrylamide gel without SDS. […] For quantification of ^3H-labeled heparin, the corresponding lanes in the gel were cut into six sections including the stacking gel (see FIG. 4A) that were transferred to a scintillation vial in 3 ml of H2O. After 2 hr incubation, 2 ml of scintillation cocktail was added and the radioactivity was measured.

Compound: 24-35 peptide containing the V30M mutation: TTR 24-35 peptide with the V30M mutation associated with familial amyloid neuropathy (PAINVAMHVFRK; UniProt P02766 44-55, looked up, variant V30M)
Binding of 3H-labeled heparin to the peptide [1]: substantially lower binding to heparin compared to the WT peptide

Binding to surface immobilized with dissociated TTR (SPR) ([2]; Thioflavin T 50 μM): no binding | Binding to surface immobilized with aggregated TTR (SPR) ([2]; Thioflavin T injection): significant binding
Compound: Cc1ccc2c(c1)sc(-c1ccc(N(C)C)cc1)[n+]2C.[Cl-] [Thioflavin T]

Binding of 3H-labeled heparin to the peptide [1]: bound to heparin | Interaction of the peptide with the heparin surface (SPR) [3]: interacted with heparin
Compound: PAINVAVHVFRK [peptide of aa 24-35, Synthesized peptide of aa 24-35 of TTR]

Congo red staining of fibrils [4]: Congo red positive fibrils | Binding to dissociated TTR (SPR response) ([2]; pH 5.0 (mildly acidic), 10 μM): observed | Affinity of TTR for heparin relative to HS II ([2]; pH 5.0, apparent KD from steady state): 10 fold | Binding of 3H-labelled heparin to aggregated TTR ([6]; TTR 500 μM pre-incubated at pH 7.4 or 2.7, heparin 30 min at room temperature): binds to aggregated TTR | Binding of 3H-labeled heparin to dissociated versus native full-length TTR ([6]; pH 5.0): preferentially bound to dissociated TTR | ThT fluorescence (fibril content) (recombinant human WT TTR; TTR 50 μM, pH 2.7, 37° C., 48 h, in the presence of heparin): 8000 AU | Effect on TTR fibrillization (ThT fluorescence) (recombinant human WT TTR; pH 2.7 and 5.0): greatly promoted TTR fibrillization | Recovery of 3H-labeled heparin in gel sections after co-incubation with TTR ([7]; pH 2.7, 37° C., 48 h co-incubation): substantially recovered in section 1
Compound: heparin
TTR amyloid-like fibril formation in fly head lysate (ThT fluorescence) [5]: generated ThT-positive amyloid-like fibrils; also recorded: promoted formation of TTR amyloid-like fibrils | Effect on TTR fibrillization/aggregation (ThT fluorescence) (recombinant human WT TTR; TTR 50 μM, pH 2.7, heparin or HS 12 μM, 37° C., 48 h): prompted TTR aggregation, forming substantial amounts of amyloid-like fibrils | Migration pattern of TTR aggregates on native-PAGE ([7]; TTR 500 μM, heparin 5 or 20 μM, pH 2.7, 37° C., 48 h): substantial macromolecular TTR aggregates migrating in the top of the gel | Interaction of 3H-labeled heparin with pre-aggregated TTR (gel sections) ([7]; TTR aggregated 48 h without heparin, then heparin for 1 h at 37° C.): no or very little heparin interacted with aggregated TTR
